# Source: US20250250287A1, “HETEROCYCLIC COMPOUNDS, COMPOSITIONS THEREOF, AND METHODS OF TREATMENT THEREWITH” (BeiGene Switzerland GmbH, priority 2022, published 2025)
# System: pERK1/2(THR202/TYR204) level in SW620 cell line (KRAS G12V)
# Assay: KRAS G12V pERK assay (HTRF) in SW620 cell line
# Type: cell-based
# Settings: Homo sapiens, SW-620, 2 h, SW620 cells, 2 hrs compound treatment
# Procedure: SW620 cell line was used in this study. Cells were maintained in RPMI 1640 supplemented with 10% fetal bovine serum (Thermo Fisher), 50 units/mL penicillin and streptomycin (Thermo Fisher) and kept at 37° C. in a humidified atmosphere of 5% CO2 in air. Cells were reinstated from frozen stocks that were laid down within 30 passages from the original cells purchased. 40000 cells per well were seeded into a 96-well plate and incubated overnight. Cells were treated with a 10-point dilution series. The final compound concentration is from 0 to 10 μM. After 2 hrs compound treatment, cells were lysed, and the pERK1/2(THR202/TYR204) level in the cell lysates was detected by HTRF kit (Cisbio). In brief, a total of 16 μL of cell lysate from each well of a 96-well plate was transferred to a 384-well white assay plate. Lysate from each well was incubated with 2 μL of Eu3+-cryptate (donor) labeled anti-phospho-ERK1/2 and 2 μL of D2 (acceptor) labeled anti-phospho-ERK1/2 antibodies (Cisbio) overnight in dark at room temperature. When donor and acceptor are in close proximity, excitation of the donor with laser triggers a Fluorescence Resonance Energy Transfer (FRET) towards the acceptor, which in turn fluoresces at 655 nm wavelength. FRET signals were measured using a PHERAstar FSX reader (BMG Labtech). IC50 determination was performed by fitting the curve of percent inhibition versus the log of the inhibitor concentration using Dotmatics.
row,Compound,IC50 [nM]
1,"N#Cc1c(N)sc2c(F)ccc(-c3c(Cl)c4c5c(nc(OC[C@@]67CCCN6C[C@H](F)C7)nc5c3F)N3CCC(C#N)C[C@H]3CO4)c12 (stereo partly drawn) [Example 30, (8aS)-5-(2-amino-3-cyano-7-fluorobenzo[b]thiophen-4-yl)-6-chloro-4-fluoro-2-(((2R,7aS)-2-fluorotetrahydro-1H-pyrrolizin-7a(5H)-yl)methoxy)-8,8a,9,10,11,12-hexahydropyrido[2′,1′:3,4][1,4]oxazepino[5,6,7-de]quinazoline-10-carbonitrile]",51
2,"Nc1cc(Cl)c(C(F)(F)F)c(-c2nc3c4c(nc(OC[C@@]56CCCN5C[C@H](F)C6)nc4c2F)N2CC[C@H]2CCO3)c1 [Example 22, 3-chloro-5-((S)-6-fluoro-4-(((2R,7aS)-2-fluorotetrahydro-1H-pyrrolizin-7a(5H)-yl)methoxy)-1,10,11,11a-tetrahydro-2H-9-oxa-2a,3,5,8-tetraazacyclobuta[4,5]cycloocta[1,2,3-de]naphthalen-7-yl)-4-(trifluoromethyl)aniline]",466
3,"C#Cc1c(F)ccc2cc(O)cc(-c3nc4c5c(nc(OC[C@@]67CCCN6C[C@H](F)C7)nc5c3F)N3C[C@H](F)C[C@H]3CO4)c12 [Example 19, 4-((2R,11aS)-2,7-difluoro-5-(((2R,7aS)-2-fluorotetrahydro-1H-pyrrolizin-7a(5H)-yl)methoxy)-2,3,11,11a-tetrahydro-1H-10-oxa-3a,4,6,9-tetraazanaphtho[1,8-ef]azulen-8-yl)-5-ethynyl-6-fluoronaphthalen-2-ol]",112
4,"C[C@@H]1C[C@H]2COc3c(Cl)c(-c4ccc(F)c5sc(N)c(C#N)c45)c(F)c4nc(OC[C@@]56CCCN5C[C@H](F)C6)nc(c34)N2C1 [Example 28, 2-amino-4-((2R,12aS)-10-chloro-8-fluoro-6-(((2R,7aS)-2-fluorotetrahydro-1H-pyrrolizin-7a(5H)-yl)methoxy)-2-methyl-2,3,12,12a-tetrahydro-1H-pyrrolo[2′,1′:3,4][1,4]oxazepino[5,6,7-de]quinazolin-9-yl)-7-fluorobenzo[b]thiophene-3-carbonitrile]",74
5,"Nc1cc(Cl)c(C(F)(F)F)c(-c2nc3c4c(nc(OC[C@@]56CCCN5C[C@H](F)C6)nc4c2F)N2CCC(F)C2CO3)c1 (stereo partly drawn) [Example 17, 3-chloro-5-(1,7-difluoro-5-(((2R,7aS)-2-fluorotetrahydro-1H-pyrrolizin-7a(5H)-yl)methoxy)-2,3,11,11a-tetrahydro-1H-10-oxa-3a,4,6,9-tetraazanaphtho[1,8-ef]azulen-8-yl)-4-(trifluoromethyl)aniline]",509
6,"C#Cc1c(F)ccc2cc(O)cc(-c3cc4c5c(nc(OC[C@@]67CCCN6C[C@H](F)C7)nc5c3F)N3CCCCC3CCO4)c12 (stereo partly drawn) [Example 6, 5-ethynyl-6-fluoro-4-(1-fluoro-13-(((2R,7aS)-2-fluorotetrahydro-1H-pyrrolizin-7a(5H)-yl)methoxy)-6,6a,7,8,9,10-hexahydro-5H-pyrido[1′,2′:5,6][1,5]oxazocino[4,3,2-de]quinazolin-2-yl)naphthalen-2-ol]",271
7,"C#Cc1c(F)ccc2cc(O)cc(-c3nc4c5c(nc(OC[C@@]67CCCN6C[C@H](F)C7)nc5c3F)N3CCCCCC3CO4)c12 (stereo partly drawn) [Example 26, 5-ethynyl-6-fluoro-4-(1-fluoro-12-(((2R,7aS)-2-fluorotetrahydro-1H-pyrrolizin-7a(5H)-yl)methoxy)-5a,6,7,8,9,10-hexahydro-5H-4-oxa-3,10a,11,13-tetraazanaphtho[1,8-ab]heptalen-2-yl)naphthalen-2-ol]",9.3

# Same assay, conditions: SW620 cells, 2 hrs compound treatment
row,Compound,IC50 [nM]
1,"C#Cc1c(F)ccc2cc(O)cc(-c3nc4c5c(nc(OCC67CCCN6CC(F)C7)nc5c3F)N3CCC3CO4)c12 (single isomer, unassigned) [Example 20]",40
2,"3-chloro-5-(1-fluoro-12-(((2R,7aS)-2-fluorotetrahydro-1H-pyrrolizin-7a(5H)-yl)methoxy)-6,6a,7,8,9,10-hexahydro-5H-4-oxa-3,10a,11,13-tetraazabenzo[4,5]cycloocta[1,2,3-de]naphthalen-2-yl)-4-(trifluoromethyl)aniline [Example 8]",290
